Laboratory results published in patent publication US9597391B2, “Cyclic-dinucleotides and its conjugates as adjuvants and their uses in pharmaceutical compositions” (HELMHOLTZ_ZENTRUM FUER INFEKTIONSFORSCHUNG GMBH, priority 2005, dated 2017).

Key:
[1] = test system: primary bone marrow-derived murine dendritic cells; assay: In vitro stimulation of primary bone marrow-derived murine dendritic cells, flow cytometry of surface markers; type: cell-based, BALB/c mice; conditions: 10 ng/ml c-diGMP, flow cytometry after 12 h and 24 h, versus no stimulus (FIG. 1)
Method: Experimental protocol: primary bone marrow-derived dendritic cell cultures were obtained from BALB/c mice following in vitro maturation of precursors in the presence of recombinant GM-CSF (5×104 U/ml), according to established protocols, e.g. Link, C., etal, 2004, Eur. J. Immuol, 34(3):899-907. Mature dendritic cells were stimulated with 10 ng/ml of E. coli lypopolysaccharide (LPS) or 10 ng/ml c-diGMP. The stimulation of cells was analyzed by flow cytometry to assess the expression of surface markers which are relevant for their antigen presentation capacity after 12 h and 24 h, respectively.
In order to identify compounds which may have potential as adjuvants for in vivo applications in the field of vaccines, a first in vitro screening based on the use of primary cultures of bone marrow-derived dendritic cells was established. Dendritic cells were selected since they represent the most efficient antigen presenting cells and they play a key role in primary immune responses. In fact, they represent the only cell type able to activate resting T cells initiating primary immune responses in vivo. […] At different time intervals, samples were taken, stained with fluorescent-labeled antibodies specific for cellular markers critical for the antigen presenting capacities of dendritic cells, and analyzed by flow cytometry.

BALB/c (H-2d) mice [2] = assay: Serum β-gal-specific IgG ELISA after i.n. or s.c. immunization with β-gal plus adjuvant; type: in vivo; conditions: for β-gal specific IgG titer in sera, i.n. administration: β-gal 30 μg/dose with or without adjuvant 10 μg, end point titers (FIG. 11; FIG. 2)
Method: Experimental protocol: six-eight weeks-old female BALB/c (H-2d) mice were purchased from Harlan Winkelmann GmbH (Borchen, Germany) and treated in accordance with local and European Community guidelines. Groups of 5 mice each were immunized on day 1, 14 and 28 with 30 μg of β-gal (Boehringer, Mannheim, Germany), alone or as an admixture with 10 μg c-diGMP or with 10 μpg c-diAMP. For intranasal (i.n.) immunization, 10 μl were applied to each naris, whereas for the s.c. injection β-gal with or without c-diGMP or c-diAMP was resuspended in a volume of 20 μl PBS per animal. Serum samples were collected at day 38 after immunization and stored at −20° C. prior to determination of β-gal-specific antibodies. 96-well Nunc-Immuno MaxiSorp assay plates (Nunc, Roskilde, Denmark) were coated with 100 μl of β-gal (Boehringer, Mannheim, Germany) at 5 μg/ml in 0.05 M carbonate buffer (pH 8.2) per well. Serial two-fold dilutions of sera in PBS with 1% BSA and 0.05% Tween 20 were added (100 μl/well), and plates incubated for 16h at 37° C. After washing, biotinylated γ-chain-specific goat anti-mouse IgG (Sigma Chemie, Deisenhofen, Germany) was added, and plates were incubated for an additional 1 h at 37° C. After four washes, 100 μl of peroxidase-conjugated streptavidin (Pharmingen) was added to cells and plates incubated at 37° C. for 30 min. After four washes, reactions were developed with ABTS in 0.1 M citrate-phosphate buffer (pH 4.35) containing 0.01% H2O2. Results for c-diGMP are shown as OD405 values after serial two-fold dilutions (FIG. 2). […] The effect of c-diGMP as an adjuvant was independent of the route of administration.
In contrast, in the presence of c-diAMP, i.n. administration of β-gal induced very high titers of specific IgG in all mice with titers higher than 500,000 (FIG. 11).
In view of the above in vitro results, additional in vivo studies have been conducted. […] Thus, the capacity of c-diGMP and c-diAMP, respectively, to stimulate efficient humoral immune responses was evaluated, by determining the serum titers of β-gal-specific antibodies in vaccinated mice.

BALB/c (H-2d) mice [3] = assay: β-gal-specific IgA in lung and vaginal lavages of immunized mice; type: in vivo; conditions: for β-gal-specific IgA in lung lavages: i.n. immunization, day 38, versus β-gal alone (FIG. 4, FIG. 5)
Method: Experimental protocol: at day 38, mice were sacrificed and the final sampling was performed. Vaginal and lung lavages were obtained by flushing the organs with 1 ml of PBS supplemented with 50 mM EDTA, 0.1% BSA, and 10 mM PMSF. Lavages were then centrifuged to remove debris (10 min at 3000×g), and supernatant fluids were stored at −20° C. To determine the concentration of total IgA present in the lung and vaginal lavages, serial dilutions of the corresponding samples were incubated in microtiter plates that were previously coated with goat anti-mouse IgA (Sigma Chemie), as capture antibodies (100 μl/well). Serial dilutions of purified mouse IgA (Sigma Chemie) were used to generate a standard curve.
To investigate the capacity of c-diGMP and c-diAMP, respectively, to stimulate mucosal responses against antigens co-administered by the i.n. and s.c. route, the production of β-gal-specific IgA in lung was analyzed (FIG. 5 for c-diAMP and FIG. 4 for c-diGMP) from immunized animals, immunized according to the protocol described in Example 2.

BALB/c (H-2d) mice [4] = assay: Isotype ELISA of β-gal-specific IgG1 and IgG2a in sera of vaccinated mice; type: in vivo
Method: Isotyp ELISA: 96-well Nunc-Immuno MaxiSorp assay plates (Nunc, Roskilde, Denmark) were coated with 100 μl of β-gal (Boehringer, Mannheim, Germany) at 5 μg/ml in 0.05 M carbonate buffer (pH 9,6) per well. Serial two-fold dilutions of sera or lavages in PBS with 1% BSA and 0.05% Tween 20 were added (100 μl/well), and plates incubated for 2 h at 37° C. After washing, biotin-conjugated rat anti-mouse IgG1 or IgG2a (Pharmingen, Hamburg, Germany) were added to determine IgG subclasses. Plates were incubated for an additional 1 h at 37° C. After four washes, 100 μl of peroxidase-conjugated streptavidin (Pharmingen) was added to cells and plates incubated at 37° C. for 30 min. After four washes, reactions were developed with ABTS in 0.1 M citrate-phosphate buffer (pH 4.35) containing 0.01% H2O2. To determine the concentration of IgG subclasses in serum, standard curves were obtained by coating the wells with an isotype-specific goat anti-mouse IgG, and then by incubating with purified mouse IgG1 or IgG2 antibodies (Dianova, Hamburg, Germany).
The pattern of the different subclasses of the β-gal antigen-specific IgG isotypes present in the sera of vaccinated mice is shown in FIG. 12. […] The protocol for vaccination was identical to the protocol described in Example 3. […] The data represents the average titer of a group of 5 animals.

[5] = i.n., average titer of 5 animals (FIG. 12A)
[6] = s.c., average titer of 5 animals (FIG. 12B)

SMILES	expression of CD40 on dendritic cells [1]	β-gal specific IgG titer in sera (BALB/c (H-2d) mice [2]; 30 μg β-gal + 10 μg adjuvant, day 1, 14, 28, serum day 38, independent of route (i.n., s.c.), FIG. 2, FIG. 3)	β-gal specific IgG titer in sera, i.n. administration (BALB/c (H-2d) mice [2])	β-gal-specific IgA in lung lavages (BALB/c (H-2d) mice [3])	β-gal-specific IgA in lung lavages (BALB/c (H-2d) mice [3]; listed as c-dGMP)	β-gal specific sIgA expression in vaginal lavage, s.c. route (BALB/c (H-2d) mice [3]; s.c. route (not shown))	β-gal specific sIgA expression in vaginal lavage (BALB/c (H-2d) mice [3]; c-diAMP as adjuvant, i.n. (FIG. 5))	β-gal specific IgG1 in sera, intranasal (BALB/c (H-2d) mice [4]; [5])	β-gal specific IgG2a in sera, intranasal (BALB/c (H-2d) mice [4]; [5])	β-gal specific IgG1 in sera, subcutaneous (BALB/c (H-2d) mice [4]; [6])	β-gal specific IgG2a in sera, subcutaneous (BALB/c (H-2d) mice [4]; [6])
Nc1nc2c(ncn2[C@@H]2O[C@@H]3COP(=O)(O)O[C@H]4[C@@H](O)[C@H](n5cnc6c(=O)[nH]c(N)nc65)O[C@@H]4COP(=O)(O)O[C@H]3[C@H]2O)c(=O)[nH]1 [c-diGMP, cyclic bis(3′-5′)diguanylic acid]	up-regulated	remarkably increased	increased expression	higher	significant increase	does not lead to an enhanced expression					
Nc1ncnc2c1ncn2[C@@H]1O[C@@H]2COP(=O)(O)O[C@H]3[C@@H](O)[C@H](n4cnc5c(N)ncnc54)O[C@@H]3COP(=O)(O)O[C@H]2[C@H]1O [c-diAMP, cyclic bis(3′-5′)diadenylic acid]			higher than 500,000	significant increase			detectable	strongly increased	strongly increased	strongly increased	strongly increased
